Test results reported in patent US4758574A, “2-phenylimidazio (4,5-c) pyridines” (Eli Lilly and Company, priority 1986, dated 1988).
Where a name gives a salt, the structure may show the parent alone.

Legend:
[1] = tested on: Cat Papillary Muscles; experiment: Positive Inotropic Activity in Isolated Cat Papillary Muscles; type: cell-based; conditions: Felis catus, control = 100 percent, read-out: Contractility of Papillary Muscle (peak response); for activity at 100 µM: Drug Concentration 10^-4 M; for activity at 10 µM: Drug Concentration 10^-5 M
Procedure: Positive Inotropic Activity in Isolated Cat Papillary Muscles […] A platinum hook secured one end of the muscle to an electrode mounted in the bottom of the bath, and a silk thread attached the tendon to a Statham isometric transducer. The baths contained Krebs-Henseleit solution (36° C., bubbled with 95 percent oxygen--5 percent carbon dioxide) of the following millimolar composition: NaCl, 118; KCl, 4.5; CaCl2, 2.5; KH2 PO4, 1.1; MgSO4, 1.2; NaHCO3, 25; and glucose, 11. A base-line tension of 1.5 g. was applied to each muscle. Square-wave pulses (5.0 msec. in duration, three times threshold voltage) delivered through the hook electrode and a second electrode positioned near the top of the muscle evoked 12 contractions/minute, which were recorded on a Grass polygraph. After the muscles had equilibrated for 60 minutes, the recorder gain was adjusted so that the pen deflected 10 mm. The drug was introduced in a solution of normal saline in an amount to bring the final concentration of the drug to 10^-5 or 10^-4 molar. Increases in contractility were tabulated as millimeters of pen deflection in excess of the baseline value. In each experiment the maximum contractility was measured. Test results are summarized in Table I and are expressed as percent of control (control=100 percent). Values are the average of results from 2 to 8 muscles.

[2] = tested on: Ventricular Contractility in the Anesthetized Dog; experiment: Ventricular Contractility in the Anesthetized Dog; type: in vivo, Mongrel dogs; conditions: Canis lupus familiaris, iv, i.v. bolus, read-out: ED50 (dose required to produce a peak increase in contractility of 50%)
Procedure: Experiments in Anesthetized Dogs Mongrel dogs of either sex ranging in weight from 7 to 14 kg. wer used. Anesthesia was induced with sodium pentobarbital (30 mg./kg., i.v.) and maintained with supplemental doses as required. A positive-pressure pump was used to ventilate the dogs through an endotracheal tube (18 strokes/minute, 20 ml./kg. stroke^-1), and a heating pad kept the body temperature at 37°-38° C. Femoral arterial blood pressure was measured through a polyethylene catheter filled with heparin solution (16 units/ml.) and connected to a Statham pressure transducer. A strain-gauge arch sutured to the right ventricle of the heart measured cardiac contractility. Tension on the gauge was adjusted to 50 g. and the gain of the recorder (Beckman dynograph) was set so that 50 g. caused a 10-mm. pen deflection; cardiac contractile tension was measured as millimeters of pen deflection or grams of tension. The drug was administered following a 30-45 minute equilibrium period as an i.v. bolus (2-5 ml.) in a normal saline vehicle. […] The maximum effects on contractility at various dose levels were determined and plotted and the dose required to produce a 50% increase in contractility (ED50) was determined by interpolation.

| Structure (SMILES) | activity at 100 µM [1] [%] | activity at 10 µM [1] [%] | ED50 [2] [mg/kg] |
| --- | --- | --- | --- |
| Fc1cccc(-c2nc3cnccc3[nH]2)c1 [Example 1, 2-(3-Fluorophenyl)imidazo[4,5-c]pyridine hydrochloride] | 157 | 112 | – |
| Cc1cccc(-c2nc3cnccc3[nH]2)c1 [Example 2, 2-(3-Methylphenyl)imidazo[4,5-c]pyridine] | 181 | 116 | 1 |
| Clc1cc(Cl)cc(-c2nc3cnccc3[nH]2)c1 [Example 3, 2-(3,5-Dichlorophenyl)imidazo[4,5-c]pyridine hydrochloride] | 146 | 117 | – |
| CS(=O)(=O)c1ccc(-c2nc3cnccc3[nH]2)cc1 [Example 4, 2-(4-Methylsulfonylphenyl)imidazo[4,5-c]pyridine hydrochloride] | 139 | 117 | 7.5 |
| Fc1ccc(-c2nc3cnccc3[nH]2)cc1 [Example 5, 2-(4-Fluorophenyl)imidazo[4,5-c]pyridine hydrochloride] | 163 | 105 | – |
| Fc1ccccc1-c1nc2cnccc2[nH]1 [Example 6, 2-(2-Fluorophenyl)imidazo[4,5-c]pyridine hydrochloride] | 152 | 108 | – |
| COc1cc(-c2nc3cnccc3[nH]2)cc(OC)c1OC [Example 10, 2-(3,4,5-trimethoxyphenyl)imidazo[4,5-c]pyridine hydrochloride] | 150 | 109 | – |
| COc1cccc(-c2nc3cnccc3[nH]2)c1OC [Example 11, 2-(2,3-dimethoxyphenyl)imidazo[4,5-c]pyridine hydrochloride] | 90 | 102 | – |
| O=[N+]([O-])c1cccc(-c2nc3cnccc3[nH]2)c1 [Example 12, 2-(3-nitrophenyl)imidazo[4,5-c]pyridine hydrochloride] | 105 | 102 | – |
| N#Cc1ccc(-c2nc3cnccc3[nH]2)cc1 [Example 14, 2-(4-cyanophenyl)imidazo[4,5-c]pyridine hydrochloride] | 164 | 112 | – |
| COc1cccc(-c2nc3cnccc3[nH]2)c1 [Example 16, 2-(3-methoxyphenyl)imidazo[4,5-c]pyridine hydrochloride] | 213 | 114 | – |
| CN(C)c1ccc(-c2nc3cnccc3[nH]2)cc1 [Example 17, 2-(4-dimethylaminophenyl)imidazo[4,5-c]pyridine hydrochloride] | 175 | 95 | – |
| COc1ccccc1-c1nc2cnccc2[nH]1 [Example 18, 2-(2-methoxyphenyl)imidazo[4,5-c]pyridine hydrochloride] | 163 | 115 | – |
| CCCCOc1ccc(-c2nc3cnccc3[nH]2)cc1 [Example 19, 2-(4-n-butoxyphenyl)imidazo[4,5-c]pyridine hydrochloride] | 288 | 114 | – |
| COc1cc(Cl)ccc1-c1nc2cnccc2[nH]1 [Example 20, 2-(4-chloro-2-methoxyphenyl)imidazo[4,5-c]pyridine hydrochloride] | 146 | 147 | – |
| COc1c(C)cc(-c2nc3cnccc3[nH]2)cc1C [Example 21, 2-(3,5-dimethyl-4-methoxyphenyl)imidazo[4,5-c]pyridine hydrochloride] | 215 | 127 | – |
| COc1ccc(-c2nc3cnccc3[nH]2)c(OC)c1OC [Example 22, 2-(2,3,4-trimethoxyphenyl)imidazo[4,5-c]pyridine hydrochloride] | 221 | 117 | – |
| Cc1ccc(-c2nc3cnccc3[nH]2)cc1 [Example 25, 2-(4-methylphenyl)imidazo[4,5-c]pyridine hydrochloride] | 130 | 95 | – |
| CCOc1cc(OC)ccc1-c1nc2cnccc2[nH]1 [Example 28, 2-(2-ethoxy-4-methoxyphenyl)imidazo[4,5-c]pyridine] | 130 | 108 | – |

| Structure (SMILES) | activity at 100 µM [1] [%] | activity at 10 µM [1] [%] | ED50 [2] [mg/kg] |
| --- | --- | --- | --- |
| CCCCOc1cc(OC)ccc1-c1nc2cnccc2[nH]1 [Example 30, 2-(2-n-butoxy-4-methoxyphenyl)imidazo[4,5-c]pyridine] | 140 | 100 | – |
| COc1ccc(OC)c(-c2nc3cnccc3[nH]2)c1 [Example 31, 2-(2,5-dimethoxyphenyl)imidazo[4,5-c]pyridine hydrochloride] | 194 | 110 | – |
| COc1cc(OC)cc(-c2nc3cnccc3[nH]2)c1 [Example 32, 2-(3,5-dimethoxyphenyl)imidazo[4,5-c]pyridine] | 179 | 115 | – |
| COc1cccc(OC)c1-c1nc2cnccc2[nH]1 [Example 33, 2-(2,6-dimethoxyphenyl)imidazo[4,5-c]pyridine hydrochloride] | 184 | 88 | – |
| COc1cc(OC)c(-c2nc3cnccc3[nH]2)c(OC)c1 [Example 34, 2-(2,4,6-trimethoxyphenyl)imidazo[4,5-c]pyridine] | 137 | 103 | – |
| CCCCCOc1cc(OC)ccc1-c1nc2cnccc2[nH]1 [Example 35, 2-(2-n-pentoxy-4-methoxyphenyl)imidazo[4,5-c]pyridine hydrochloride] | 81 | 105 | – |
| COCCCOc1cc(OC)ccc1-c1nc2cnccc2[nH]1 [Example 36, 2-[2-(γ-methoxypropoxy)-4-methoxyphenyl]imidazo[4,5-c]pyridine] | 147 | 100 | – |
| COCCOc1cc(OC)ccc1-c1nc2cnccc2[nH]1 [Example 37, 2-[2-(β-methoxyethoxy)-4-methoxyphenyl]imidazo[4,5-c]pyridine] | 116 | 109 | – |
| COc1ccc(-c2nc3cnccc3[nH]2)c(OCCSc2ccccc2)c1 [Example 38, 2-[2-(β-phenylmercaptoethoxy)-4-methoxyphenyl]imidazo[4,5-c]pyridine] | 109 | 103 | – |
| COc1cc(OC)c(-c2nc3cnccc3[nH]2)cc1OC [Example 40, 2-(2,4,5-trimethoxyphenyl)imidazo[4,5-c]pyridine hydrochloride] | 129 | 108 | – |
| CCSc1ccc(-c2nc3cnccc3[nH]2)c(OC)c1 [Example 41, 2-(2-methoxy-4-ethylmercaptophenyl)imidazo[4,5-c]pyridine hydrochloride] | 196 | 136 | – |
| CCOc1cc(SC)ccc1-c1nc2cnccc2[nH]1 [Example 42, 2-(2-ethoxy-4-methylmercaptophenyl)imidazo[4,5-c]pyridine] | 149 | 122 | – |
| CCCOc1cc(SC)ccc1-c1nc2cnccc2[nH]1 [Example 43, 2-(2-n-propoxy-4-methylmercaptophenyl)imidazo[4,5-c]pyridine] | – | – | 2.2 |
| COc1ccc(-c2nc3cnccc3[nH]2)c(OCCCSC)c1 [Example 44, 2-[2-(γ-methylmercaptopropoxy)-4-methoxyphenyl]imidazo[4,5-c]pyridine] | 129 | 118 | – |
| Cc1ccc(-c2nc3cnccc3[nH]2)cc1C [Example 46, 2-(3,4-dimethylphenyl)imidazo[4,5-c]pyridine hydrochloride] | 225 | 133 | – |
| Clc1cccc(-c2nc3cnccc3[nH]2)c1 [Example 48, 2-(3-chlorophenyl)imidazo[4,5-c]pyridine] | 176 | 107 | – |
| Clc1ccc(-c2nc3cnccc3[nH]2)cc1 [Example 49, 2-(4-chlorophenyl)imidazo[4,5-c]pyridine] | 175 | 107 | – |
| COc1ccc(-c2nc3cnccc3[nH]2)c(OCC[S+]([O-])c2ccccc2)c1 (stereo not drawn) [Example 53, 2-[2-(β-phenylsulfinylethoxy)-4-methoxyphenyl]imidazo[4,5-c]pyridine] | 96 | 107 | – |
| COc1cc(Br)ccc1-c1nc2cnccc2[nH]1 [Example 57, 2-(2-methoxy-4-bromophenyl)imidazo[4,5-c]pyridine hydrochloride] | 175 | 134 | – |
